# Values joined by “and” are separate entries in the source; they are usually repeats but may differ in a detail not shown here. Equal entries are not always repeated. Where two headings read alike, the source gives them in different places.
# Test: tissue distribution pharmacokinetics after single i.p. administration
# Format: in vivo, rat
# Design: Cmax: unit: ng/g
# Protocol: Standard laboratory food (LSM-B) and filtered water as well as environment enrichment were freely available. Animals were randomly divided into treatment groups using a computer-based random order generator. All of the experiments were performed by two observers unaware of the treatment applied between 9:00 and 14:00 on separate groups of animals. Rats were injected with the investigated compounds once (in pharmacokinetic studies) and for 21 days (in behavioral studies), and afterward, behavioral tests were conducted and tissue collection was done, as required. For pharmacokinetic studies, animals were fasted prior to dosing by withholding food but not water overnight. After dosing, the food was withheld for an additional 8 h. All animals were used only once. Animals were handled every day and weighed every other day in the chronic part of the experiment. Procedures involving animals and their care were conducted in accordance with current European Community and Polish legislations on animal experimentation. Additionally, all efforts were made to minimize animals' suffering and to use only the number of animals necessary to produce reliable scientific data. The experimental protocols and procedures described were approved by the I Local Ethics Commission in Cracow (nos 309/2019 and 765/2023) and complied with the European Communities Council Directive of 24 November 24, 1986 (86/609/EEC) and were in accordance with the 1996 NIH Guide for the Care and Use of Laboratory Animals. The research program complies with the commonly accepted '3Rs' (replacement and reduction of animals, refinement of experimental conditions, and procedures to minimize the harm to animals). […] Moreover, five tissues (i.e., brain, heart, lungs, kidneys, and liver) were harvested and rinsed with cold saline. Blood was allowed to clot at room temperature for 15-20 min and then centrifuged (3000 rpm for 10 min). The obtained serum and tissues were stored at -80 °C until analysis. […] HPLC analysis with UV detection at 221 nm was performed at a 1 mL/min flow rate, and the column temperature was 38 °C. Before analysis, tissue samples were thawed, weighed (200-250 mg), and placed in 5 mL plastic tubes with four volumes (w/v) of PBS (pH 7.4) and homogenized individually using a […]-1 homogenizer (ART Prozess & Labortechnik GmbH & Co., Germany). […] The samples were alkalized with 50 μL of 4 M sodium hydroxide solution, vortex-mixed, and extracted with 1 mL of ethyl acetate/hexane (30/70, v/v) mixture on a shaker (VXR Vibrax, IKA, Germany) for 20 min. […] Then, the samples were shaken and centrifuged again. Finally, 60-90 μL of each acidic layer was injected into the HPLC system. […] The interday and intraday precision and accuracy of quality control samples evaluated in the serum and tissue homogenates were within 15%. […] The area under the serum concentration-time curve from time zero to time t (AUC0-t), where t is the time of the last measurable sample, was calculated according to the linear trapezoidal rule. The AUC from time zero to infinity (AUC0-∞) was estimated as AUC0-t + Ct/λz, where Ct was the serum concentration of the last measurable sample. The clearance (CL/F) was calculated as D/AUC0-∞, and the volume of distribution based on the terminal phase (Vz/F) was estimated as D/(λz·AUC0-∞), where F is the bioavailability of intraperitoneal administration. The MRT is calculated to be […], where AMUC0-∞ is the area under the first moment curve from the time of dosing to infinity. The peak serum concentration (Cmax) and the time to reach Cmax (Tmax) were read directly from the observations. […] Data were presented as mean ± SD.
structure (smiles),measurement,setting,value
"CN1CCN(c2nc(N)nc(C(C)(C)Sc3ccc4ccccc4c3)n2)CC1 [WA-22, 4-(4-methylpiperazin-1-yl)-6-(2-(naphthalen-2-ylthio)propan-2-yl)-1,3,5-triazin-2-amine]",time after administration at which still detected in all analyzed rat organs,1 mg/kg i.p.,240 min
same,AUC0–t,"brain, 0.3 mg/kg i.p.",1575.82 ± 182.54 ng·min/g
same,t0.5λz,"brain, 0.3 mg/kg i.p.",48.35 ± 4.46 min
same,Tmax,"brain, 0.3 mg/kg i.p., 0.3 mg/kg",11.67 ± 5.77 min
same,Cmax,"brain, 1.0 mg/kg i.p., 1 mg/kg",114.79 ± 39.16 ng/g
same,Tmax,"brain, 1.0 mg/kg i.p., 1 mg/kg",8.33 ± 5.77 min
same,t0.5λz,"brain, 1.0 mg/kg i.p., 1 mg/kg",110.31 min and 110.31 ± 24.35 min
same,AUC0–t,"heart, 0.3 mg/kg i.p.",1670.68 ± 385.10 ng·min/g
same,t0.5λz,"heart, 0.3 mg/kg i.p.",84.99 ± 19.47 min
same,AUC0–t,"heart, 1.0 mg/kg i.p.",6013.14 ± 2336.18 ng·min/g
same,t0.5λz,"heart, 1.0 mg/kg i.p.",122.04 ± 18.30 min
same,fraction cleared in rat tissues and serum at 120 min,i.p. administration,80–95%
same,AUC0–t,"kidneys, 0.3 mg/kg i.p.",3276.54 ± 1455.54 ng·min/g
same,t0.5λz,"kidneys, 0.3 mg/kg i.p.",67.32 ± 12.95 min
same,AUC0–t,"kidneys, 1.0 mg/kg i.p.",12540.07 ± 4826.76 ng·min/g
same,t0.5λz,"kidneys, 1.0 mg/kg i.p., 1 mg/kg",122 min and 121.93 ± 44.52 min
same,AUC0–t,"liver, 0.3 mg/kg i.p.",3993.81 ± 1308.63 ng·min/g
same,t0.5λz,"liver, 0.3 mg/kg i.p.",48.07 ± 6.68 min
same,AUC0–t,"liver, 1.0 mg/kg i.p.",14056.00 ± 8075.06 ng·min/g
same,t0.5λz,"liver, 1.0 mg/kg i.p., 1 mg/kg",109 min and 108.96 ± 17.84 min
same,AUC0–t,"lungs, 0.3 mg/kg i.p.",9320.95 ± 1906.43 ng·min/g
same,t0.5λz,"lungs, 0.3 mg/kg i.p.",105.43 ± 5.42 min
same,AUC0–t,"lungs, 1.0 mg/kg i.p.",33528.62 ± 5691.73 ng·min/g
same,t0.5λz,"lungs, 1.0 mg/kg i.p.",96.48 ± 13.43 min
same,Kp,"male, Wistar, rat, brain (relative to serum), ip, i.p. administration, read-out: brain-to-serum AUC ratio",~2.17
same,Cmax,"male, Wistar, rat, brain, ip, 0.3 mg/kg, brain, 0.3 mg/kg i.p., read-out: Cmax",30.7 ± 3.28 ng/g
same,Tmax,"male, Wistar, rat, brain, ip, 0.3 mg/kg, brain, 0.3 mg/kg i.p., read-out: Tmax (converted)",12 min
same,Cmax,"male, Wistar, rat, brain, ip, 1 mg/kg, brain, 1.0 mg/kg i.p., read-out: Cmax",115 ± 39.2 ng/g
same,Tmax,"male, Wistar, rat, brain, ip, 1 mg/kg, brain, 1.0 mg/kg i.p., read-out: Tmax (converted)",8 min
same,Kp,"male, Wistar, rat, brain/serum, ip, 0.3 mg/kg, brain, 0.3 mg/kg i.p., read-out: AUC ratio (tissue-to-serum AUC0–t)",1.89 ± 0.34
same,Kp,"male, Wistar, rat, brain/serum, ip, 1 mg/kg, brain, 1.0 mg/kg i.p., read-out: AUC ratio (tissue-to-serum AUC0–t)",2.46 ± 1.32
same,Kp,"male, Wistar, rat, brain/serum, ip, 1 mg/kg, brain-to-serum, 1 mg/kg i.p., read-out: AUC0–∞ (ng·h/g)/AUC0–∞ (ng·h/mL)",2.14 ± 1.18
same,Kp,"male, Wistar, rat, brain/serum, ip, 1 mg/kg, brain-to-serum, 1 mg/kg i.p., read-out: Cmax (ng/g)/Cmax (ng/mL)",1.99 ± 1.61
same,Cmax,"male, Wistar, rat, heart, ip, 0.3 mg/kg, heart, 0.3 mg/kg i.p., read-out: Cmax",37.5 ± 6.65 ng/g
same,Tmax,"male, Wistar, rat, heart, ip, 0.3 mg/kg, heart, 0.3 mg/kg i.p., read-out: Tmax (converted)",5 min
same,Cmax,"male, Wistar, rat, heart, ip, 1 mg/kg, heart, 1.0 mg/kg i.p., read-out: Cmax",172 ± 74.7 ng/g
same,Tmax,"male, Wistar, rat, heart, ip, 1 mg/kg, heart, 1.0 mg/kg i.p., read-out: Tmax (converted)",5 min
same,Kp,"male, Wistar, rat, heart/serum, ip, 0.3 mg/kg, heart, 0.3 mg/kg i.p., read-out: AUC ratio (tissue-to-serum AUC0–t)",2 ± 0.52

# From paper PMC11926880, “Procognitive Potential of Neuroprotective Triazine 5-HT6 Receptor Antagonists Tested on Chronic Activity In Vivo in Rats: Computer-Aided Insight into the Role of Chalcogen-Differences on the Pharmacological Profile” (ACS Chemical Neuroscience, 2025)
